Converted amounts (≈) assume the structure as drawn.

Experimental findings from patent publication US9738684B2, “N-terminally modified linear and branched polyamine conjugated peptidomimetics as antimicrobials agents” (COUNCIL OF SCIENTIFIC & INDUSTRIAL RESEARCH, priority 2015, dated 2017) are described below.

The subject of one data set is S. aureus (ATCC 29213). Kind of data set: MIC, serial broth dilution. The format is cell-based, Staphylococcus aureus. The following applies: MHB, 18 h, 37° C. The protocol: (§1) The peptidomimetics designed in present invention were evaluated as antibacterial therapeutics against a broad range of bacterial strains by broth microdilution method. The antibacterial activity of the peptidomimetics was reported in terms of the minimum inhibitory concentrations (MIC).
(§2) Following bacterial strains were used in this study: S. aureus (ATCC 29213), methicillin resistant S. aureus (ATCC 33591), Staphylococcus epidermidis (ATCC 12228), methicillin resistant Staphylococcus epidermidis(ATCC 51625), Enterococcus faecalis (ATCC 7080), Escherichia coli (ATCC 11775), and Acinetobacter baumannii (ATCC 19606). Antibacterial activity was evaluated using a modified serial broth dilution method in accordance with Clinical Laboratory Standard Institute guidelines [Methods for dilution antimicrobial susceptibility tests for bacteria that grow aerobically-7th ed. Approved standard M7-A7. Clinical and Laboratory Standards Institute, Wayne, Pa., Biochim. Biophys. Acta 1798:1864-1875, 2010.]. Briefly, the inoculums were prepared from mid-log phase bacterial cultures. Peptidomimetics were incubated with bacterial suspension in Muller Hinton broth media (10^5 CFU/mL) in 96 well microtitre plate. The plates were incubated overnight with agitation (200 rpm) at 37° C. After 18 h, absorbance was measured at 630 nm. Cultures without test peptidomimetics were used as positive control. Un-inoculated Mueller Hinton Broth (MHB) was used as negative control. Tests were carried out in duplicate on at least three different days. […] For comparison standard peptide antibiotics vancomycin (VAN) and polymyxin B (PMB) were also assayed under identical conditions (Table 2). […] Further, antibacterial activity of active peptidomimetics 1c and 1d were also evaluated against MRSA in presence of 25% v/v human serum as well as bovine serum.
In general terms: Broth dilution looks for growth in wells or tubes with falling amounts of substance.

Data set [1] deals with methicillin resistant S. aureus (ATCC 33591). Kind of data set: MIC, serial broth dilution. The following applies: MHB, 18 h, 37° C. The format is cell-based, Staphylococcus aureus. How it is done:
as §1, §2

Data set [2] has as its system MRSA (ATCC 33591) biofilm. Kind of data set: Inhibition of biofilm formation (alamar blue, crystal violet). The class given is cell-based, Staphylococcus aureus. To be noted: sub-MICb; for reduction in metabolic activity (alamar blue), biofilm formation: printed as 'reduction up to'. How it is done: (§3) To evaluate potential of designed active peptidomimetics against MRSA biofilms a methodology as used previously was employed with minor modifications [Antimicrob. Agents Chemother., 57:2726-2737, 2013]. Briefly, freshly inoculated MRSA (ATCC 33591) was grown in biofilm growth media (TSB supplemented with 0.5% w/v NaCl and 0.25% w/v glucose) overnight. Next day, the culture was diluted in fresh biofilm growth media to 10^5 CFU/mL. 200 μl of diluted culture was dispensed in wells of a 96-well polystyrene plate for biofilm formation. […] Biofilm cultures were re-incubated at 37° C. for 24 h. After removal of medium, the biofilms were further washed twice with sterile NaCl/Pi buffer and assessed for metabolic activity (alamar blue assay) and biomass quantification (Crystal violet assay).
Background: Resazurin is reduced to fluorescent resorufin, in cell work by metabolically active cells.

The subject of data set [3] is human red blood cells (hRBC). As to the kind of experiment: Hemolytic activity. The class given is cell-based. To be noted: 250 μg/mL, 1 h at 37° C. The protocol:
Hemolytic activity of the peptidomimetics was evaluated on human red blood cells (hRBC) as described previously with minor modifications [FEBS J, 273:4040-4054, 2006; Biochim Biophys Acta., 1798:1864-1875, 2010]. Briefly, 100 μL of fresh hRBC suspension 4% v/v in NaCl/Pi (35 mM phosphate buffer, 150 mM NaCl, pH 7.2) was placed in a 96-well plate. After incubation of the peptidomimetics (100 μL) in the hRBC suspension for 1 h at 37° C., the plates were centrifuged and supernatant (100 μL) was transferred to fresh 96-well plate. Absorbance was read at 540 nm using ELISA plate reader (Molecular Devices). Percent hemolysis was calculated using the following formula: % hemolysis=100[(A−A0)/(At−A0)]
Where, A represents absorbance of sample wells at 540 nm. Also A0 and At represents 0% and 100% hemolysis determined in NaCl/Pi and 1% Triton X-100, respectively (Table 2). […] Peptidomimetics 1e and 1f caused 31% and 30% hemolysis at 250 μg/mL. Peptidomimetics 2d, 2e and 2f caused significant hemolysis with 83%, 96% and 88% damage to hRBCs at […] respectively.

Another data set concerns MRSA (ATCC 33591). Kind of data set: Planktonic MIC in biofilm media (MICb). The format is cell-based, Staphylococcus aureus. To be noted: TSB with 0.5% NaCl and 0.25% glucose.
For data set [4], the system named is Staphylococcus epidermidis (ATCC 12228). As to the kind of experiment: MIC, serial broth dilution. To be noted: MHB, 18 h, 37° C. The class given is cell-based. How it is done: as §1, §2
In data set [5] the test system is Enterococcus faecalis (ATCC 7080). As to the kind of experiment: MIC, serial broth dilution. The class given is cell-based. To be noted: MHB, 18 h, 37° C. How it is done: as §1, §2
Data set [6] concerns methicillin resistant Staphylococcus epidermidis (ATCC 51625). As to the kind of experiment: MIC, serial broth dilution. The class given is cell-based. To be noted: MHB, 18 h, 37° C. The protocol: as §1, §2
The test system of data set [7] is Acinetobacter baumannii (ATCC 19606). Kind of data set: MIC, serial broth dilution. The class given is cell-based. The following applies: MHB, 18 h, 37° C. The protocol: as §1, §2
The test system of data set [8] is Escherichia coli (ATCC 11775). Kind of data set: MIC, serial broth dilution. The format is cell-based. Set-up: MIC E. coli. (ATCC 11775): unit not given here. The following applies: MHB, 18 h, 37° C. The protocol:
as §1, §2

Data set [9] concerns MRSA (ATCC 33591) biofilm. Kind of data set: 24 h preformed mature biofilm (alamar blue, crystal violet). The class given is cell-based, Staphylococcus aureus. To be noted: 20×MICb: 1c 140 μg/mL, 1d 70 μg/mL, VAN 20 μg/mL. How it is done:
as §3

Another data set has as its system MRSA. As to the kind of experiment: Membrane depolarization with DiSC3(5) dye. The format is cell-based, Staphylococcus aureus. To be noted: up to the highest concentration tested. How it is done: For determination of membrane depolarizing ability of designed peptidomimetics, a membrane potential sensitive dye DiSC3(5) was used as described previously with minor modifications [Org Biomol. Chem. 10: 8326-8335, 2012; J. Am. Chem. Soc., 132: 18417-18428, 2010.]. Briefly, overnight grown MRSA was sub cultured into MHB for 2-3 h at 37° C. to obtain mid-log phase cultures. The cells were centrifuged at 4000 rpm for 10 min at 25° C., washed, and re-suspended into respiration buffer (5 mM HEPES, 20 mM glucose, pH 7.4) to obtain a diluted suspension of OD600˜0.05. Then DiSC3(5) [0.18 μM in DMSO], was added to 500 μL aliquotes of the re-suspended cells and allowed to stabilize for 1 h. Baseline fluorescence was acquired using a Edinburg F900 spectrofluorometer by excitation at 622 nm and emission at 670 nm in a 1 cm path length cuvette. Bandwidth of 5 nm was employed for excitation and emission. Subsequently, increasing concentrations of test peptidomimetics were added to the stabilized cells and the increase of fluorescence on account of the de-quenching of DiSC3(5) dye was measured after every 2 min to obtain the maximal depolarization. Increase in relative fluorescence unit (RFU) was plotted against increasing concentrations of different peptidomimetics or PMB. […] The increase in fluorescence for lipid tagged peptidomimetics was concentration dependent up to 9.9 μg/mL and henceforth, got saturated resulting into plateau like dose response curves. The experiment was repeated twice on two consecutive days and produced similar results.

`CCCCCCCCCC(=O)NC(Cc1c[nH]c2ccccc12)C(=O)NC(Cc1c[nH]c2ccccc12)C(=O)NCCCNCCCCNCCCN` (centres unmarked) [1d]: the “MIC S. aureus (ATCC 29213)” value in the data set on S. aureus (ATCC 29213) amounted to 0.0017 µg/mL (≈ 0.00233 µM). Further, in data set [1], the “MIC MRSA (ATCC 33591)” value was found to be 1.7 µg/mL (≈ 2.33 µM). Moreover, in [2], the “% biomass reduction (crystal violet), biofilm formation” value is reported as 28.2±11.1% and the “reduction in metabolic activity (alamar blue), biofilm formation” value came to 26.4±3.3%. For the same compound, in [3], the “% H, percentage hemolysis of human RBCs” value stood at 9%. The “MICb, planktonic MIC in biofilm media” value in the data set on MRSA (ATCC 33591) was 3.5 µg/mL. In [4], the “MIC S. epidermidis (ATCC 12228)” value is 1.7 µg/mL (≈ 2.33 µM). The “MIC E. facaelis (ATCC 7080)” value in data set [5] is 0.0035 µg/mL (≈ 0.0048 µM). In addition, in data set [6], the “MIC MRSE (ATCC 51625)” value was found to be 0.0017 µg/mL (≈ 0.00233 µM). Further, in [7], the “MIC A. baumannii (ATCC 19606)” value stood at 0.1136 µg/mL (≈ 0.156 µM). Also, the “MIC E. coli. (ATCC 11775)” value in [8] is listed as 14.2. For the same compound, in [9], the “biomass remaining compared to control, 24 h pre-formed biofilm (crystal violet)” value was 21.4±9.2%. In addition, in the data set with MRSA, the “change in relative fluorescence unit (RFU), membrane depolarization” value is reported as “intermediate changes in fluorescence intensity”.
In the case of `NCCCNCCCCNCCCNC(=O)C(Cc1c[nH]c2ccccc12)NC(=O)C(Cc1c[nH]c2ccccc12)NC(=O)Cc1ccc(C(F)(F)F)cc1` (centres unmarked) [1c], the “MIC S. aureus (ATCC 29213)” value in the data set with S. aureus (ATCC 29213) was determined as 0.0017 µg/mL (≈ 0.00223 µM). Also, in data set [1], the “MIC MRSA (ATCC 33591)” value was determined as 3.5 µg/mL (≈ 4.6 µM). Moreover, in [2], the “% biomass reduction (crystal violet), biofilm formation” value was 19.8±5.6% and the “reduction in metabolic activity (alamar blue), biofilm formation” value was found to be 33.1±5.7%. Also, the “% H, percentage hemolysis of human RBCs” value in data set [3] is on record as 2%. For the same compound, in the data set on MRSA (ATCC 33591), the “MICb, planktonic MIC in biofilm media” value came to 7.1 µg/mL. Besides, the “MIC S. epidermidis (ATCC 12228)” value in data set [4] stood at 1.7 µg/mL (≈ 2.23 µM). The “MIC E. facaelis (ATCC 7080)” value in [5] came out at 0.0284 µg/mL (≈ 0.0373 µM). The “MIC MRSE (ATCC 51625)” value in data set [6] came out at 0.0035 µg/mL (≈ 0.0046 µM). In addition, the “MIC A. baumannii (ATCC 19606)” value in [7] was found to be 0.0284 µg/mL (≈ 0.0373 µM). For the same compound, the “MIC E. coli. (ATCC 11775)” value in data set [8] is given as 56.8. Moreover, in data set [9], the “biomass remaining compared to control, 24 h pre-formed biofilm (crystal violet)” value is given as 24.0±13.4%. In addition, the “change in relative fluorescence unit (RFU), membrane depolarization” value in the data set on MRSA is “only marginal changes in RFU”.
